Experiments:
[1] = Biological Test Example 5: fraction unbound in human plasma (equilibrium dialysis); type: in vitro ADME
Method: Plasma protein binding of compounds was determined with Equilibrium Dialysis of spiked plasma against compound free dextrane buffer using a dialysis membrane with mass cutoff of 5000 Da. Compound concentrations in plasma and buffer after incubation were measured using HPLC/Mass spectrometry.

CYP3A4 = CYP3A4 (Homo sapiens, UniProt P08684); test: Biological Test Example 6: CYP3A4 inhibition (erythromycin N-demethylation); type: in vitro ADME
CYP2C9 [2] = target: T1, CYP2C9 (Homo sapiens, UniProt P11712); test: Biological Test Example 7: CYP2C9 inhibition (naproxen O-demethylation); type: in vitro ADME
T1 construct: purchased Invitrogen 2859; host or cells: insect cells infected with baculovirus (microsomes)

CYP2C19 = CYP2C19 (Homo sapiens, UniProt P33261); test: Biological Test Example 8: CYP2C19 inhibition (diazepam N-demethylation); type: in vitro ADME
CYP2C9 [3] = target: T1, CYP2C9; test: Biological Test Example 9: CYP2C9 inhibition (Invitrogen kit, fluorogenic OOMR); type: in vitro ADME
11β-HSD1 [4] = target: T2, 11β-HSD1 (Homo sapiens, UniProt P28845); test: biochemical; conditions: for inhibition at 0.1 µM: read-out: Average % inhibition at 100 nM
11β-HSD1 [5] = target: T2, 11β-HSD1; test: Biological Test Example 4: microsomal 11β-HSD1 in the presence of 50% human plasma; conditions: for Shift: IC50 in Test Example 4 divided by IC50 in Test Example 1
[6] = Biological Test Example 1 IC50 (nM)
[7] = IC50 Range, Biological Test Example 1

T2 sequence (P28845 whole entry): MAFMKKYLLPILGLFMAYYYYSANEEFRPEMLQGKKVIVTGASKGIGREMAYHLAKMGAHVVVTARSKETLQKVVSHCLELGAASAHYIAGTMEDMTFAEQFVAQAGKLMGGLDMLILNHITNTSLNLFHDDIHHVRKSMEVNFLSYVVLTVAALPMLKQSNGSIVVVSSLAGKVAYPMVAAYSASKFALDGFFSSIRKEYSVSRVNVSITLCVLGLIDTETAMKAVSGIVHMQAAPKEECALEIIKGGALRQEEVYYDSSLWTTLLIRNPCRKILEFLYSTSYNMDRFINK
T1 sequence (P11712 whole entry): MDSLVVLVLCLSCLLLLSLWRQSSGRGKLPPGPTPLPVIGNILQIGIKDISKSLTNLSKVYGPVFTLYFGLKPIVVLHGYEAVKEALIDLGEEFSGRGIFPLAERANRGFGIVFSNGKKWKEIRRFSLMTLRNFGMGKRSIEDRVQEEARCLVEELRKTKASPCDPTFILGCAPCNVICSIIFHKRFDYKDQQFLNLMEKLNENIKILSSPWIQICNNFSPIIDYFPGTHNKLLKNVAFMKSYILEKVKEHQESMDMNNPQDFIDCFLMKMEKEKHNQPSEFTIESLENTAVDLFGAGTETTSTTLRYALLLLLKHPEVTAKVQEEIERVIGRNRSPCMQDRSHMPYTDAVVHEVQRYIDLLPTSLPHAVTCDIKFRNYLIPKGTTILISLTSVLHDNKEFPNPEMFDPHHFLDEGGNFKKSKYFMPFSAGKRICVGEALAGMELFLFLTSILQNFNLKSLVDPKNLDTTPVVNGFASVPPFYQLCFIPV
CYP2C19, sequence (P33261 whole entry): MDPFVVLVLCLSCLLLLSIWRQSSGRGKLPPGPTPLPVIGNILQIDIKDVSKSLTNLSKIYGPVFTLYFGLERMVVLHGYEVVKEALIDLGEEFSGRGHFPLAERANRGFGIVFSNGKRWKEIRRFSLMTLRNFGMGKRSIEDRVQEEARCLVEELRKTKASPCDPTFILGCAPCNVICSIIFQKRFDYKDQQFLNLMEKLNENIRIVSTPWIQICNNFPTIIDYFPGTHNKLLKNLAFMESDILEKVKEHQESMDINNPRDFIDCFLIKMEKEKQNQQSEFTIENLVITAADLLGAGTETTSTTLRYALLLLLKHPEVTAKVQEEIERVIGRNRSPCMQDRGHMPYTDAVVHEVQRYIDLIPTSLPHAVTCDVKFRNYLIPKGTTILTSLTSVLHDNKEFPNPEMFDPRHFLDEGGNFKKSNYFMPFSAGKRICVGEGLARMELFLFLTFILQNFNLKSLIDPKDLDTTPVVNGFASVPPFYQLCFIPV
CYP3A4, sequence (P08684 whole entry): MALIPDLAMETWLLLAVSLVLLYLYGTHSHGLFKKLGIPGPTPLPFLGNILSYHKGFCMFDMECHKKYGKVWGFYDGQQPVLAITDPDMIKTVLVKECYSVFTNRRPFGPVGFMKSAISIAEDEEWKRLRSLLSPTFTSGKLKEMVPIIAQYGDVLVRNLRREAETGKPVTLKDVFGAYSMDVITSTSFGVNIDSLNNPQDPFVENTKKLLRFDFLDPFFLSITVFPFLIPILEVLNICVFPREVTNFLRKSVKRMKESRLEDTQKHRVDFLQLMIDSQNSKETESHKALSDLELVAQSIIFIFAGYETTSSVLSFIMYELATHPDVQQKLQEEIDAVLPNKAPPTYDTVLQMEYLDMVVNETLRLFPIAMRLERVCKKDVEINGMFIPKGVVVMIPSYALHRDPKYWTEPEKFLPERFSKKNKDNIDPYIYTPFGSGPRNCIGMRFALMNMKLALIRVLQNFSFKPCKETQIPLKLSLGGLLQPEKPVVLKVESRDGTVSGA

Structure (SMILES)	Biological Test Example 5 (%) [1] [%]	IC50 (CYP3A4) [µM]	IC50 (CYP2C9 [2]) [µM]	IC50 (CYP2C19) [µM]	IC50 (CYP2C9 [3]) [µM]	IC50 (11β-HSD1 [4]; [6]) [nM]	IC50 (11β-HSD1 [4]; [7]) [nM]	inhibition at 0.1 µM (11β-HSD1 [4]) [%]	IC50 (11β-HSD1 [5]) [µM]	Shift (11β-HSD1 [5])
C[C@@H](c1ccc(-c2ccc(C#N)cn2)cc1)N1CC[C@](CC(C)(C)O)(c2ccc(F)cc2)OC1=O [EXAMPLE 111, 6-(4-((S)-1-((S)-6-(4-fluorophenyl)-6-(2-hydroxy-2-methylpropyl)-2-oxo-1,3-oxazinan-3-yl)ethyl)phenyl)nicotinonitrile]	2	9.8	> 50	> 50	4.7	0.8	< 100	97.6	0.0072	
C[C@@H](c1ccc(-c2ccccn2)cc1)N1CC[C@](CCCNS(C)(=O)=O)(c2ccc(F)cc2)OC1=O [EXAMPLE 61, N-(3-((R)-6-(4-fluorophenyl)-2-oxo-3-((S)-1-(4-(pyridin-2-yl)phenyl)ethyl)-1,3-oxazinan-6-yl)propyl)methanesulfonamide]		29.2	23	40	9.9	0.7	< 100	96.2	0.0136	18.2
Cc1ccc(-c2ccc([C@H](C)N3CC[C@](CC(C)(C)O)(c4ccccc4)OC3=O)cc2)nn1 [EXAMPLE 134, (S)-6-(2-hydroxy-2-methylpropyl)-3-((S)-1-(4-(6-methylpyridazin-3-yl)phenyl)ethyl)-6-phenyl-1,3-oxazinan-2-one]	10.5	> 50	> 50	> 50	> 30					
C[C@@H](c1ccc(-c2ccc(C#N)cn2)cc1)N1CC[C@](CC(C)(C)O)(c2ccccc2)OC1=O [EXAMPLE 138, 6-(4-((S)-1-((S)-6-(2-hydroxy-2-methylpropyl)-2-oxo-6-phenyl-1,3-oxazinan-3-yl)ethyl)phenyl)nicotinonitrile]	2	12.7	22.2	24.2						
Cc1cc(-c2ccc([C@H](C)N3CC[C@](CCCNS(C)(=O)=O)(c4ccc(F)cc4)OC3=O)cc2)ccn1 [EXAMPLE 80, N-(3-((R)-6-(4-fluorophenyl)-3-((S)-1-(4-(2-methylpyridin-4-yl)phenyl)ethyl)-2-oxo-1,3-oxazinan-6-yl)propyl)methanesulfonamide]		13	11.2	13.2	8.9	1	< 100	96	0.0055	5.4

Second part, the molecule after the results:

Biological Test Example 5 (%) [1] [%]	IC50 (CYP3A4) [µM]	IC50 (CYP2C9 [2]) [µM]	IC50 (CYP2C19) [µM]	IC50 (CYP2C9 [3]) [µM]	IC50 (11β-HSD1 [4]; [6]) [nM]	IC50 (11β-HSD1 [4]; [7]) [nM]	inhibition at 0.1 µM (11β-HSD1 [4]) [%]	IC50 (11β-HSD1 [5]) [µM]	Shift (11β-HSD1 [5])	Structure (SMILES)
0.3	24.1	20.1	24.7	9.6						C[C@@H](c1ccc(-c2ccc(F)cn2)cc1)N1CC[C@](CC(C)(C)O)(c2ccccc2)OC1=O [EXAMPLE 136, (S)-3-((S)-1-(4-(5-fluoropyridin-2-yl)phenyl)ethyl)-6-(2-hydroxy-2-methylpropyl)-6-phenyl-1,3-oxazinan-2-one]
1.8	> 50				1.1	< 100	94.5	0.0105		COc1ccc(-c2ccc([C@H](C)N3CC[C@](CCC(N)=O)(c4ccccc4)OC3=O)cc2)cn1 [EXAMPLE 52, 3-((R)-3-((S)-1-(4-(6-methoxypyridin-3-yl)phenyl)ethyl)-2-oxo-6-phenyl-1,3-oxazinan-6-yl)propanamide]
2.7	> 50	> 50	> 50	17.4						Cc1ncc(-c2ccc([C@H](C)N3CC[C@](CC(C)(C)O)(c4ccccc4)OC3=O)cc2)cn1 [EXAMPLE 149, (S)-6-(2-hydroxy-2-methylpropyl)-3-((S)-1-(4-(2-methylpyrimidin-5-yl)phenyl)ethyl)-6-phenyl-1,3-oxazinan-2-one]

— patent US8569292B2, “Cyclic inhibitors of 11β-hydroxysteroid dehydrogenase 1” (Vitae Pharmaceuticals, Inc., priority 2008, dated 2013)
